Data: ChEMBL document CHEMBL5154747, “Discovery of new carbonic anhydrase IX inhibitors as anticancer agents by toning the hydrophobic and hydrophilic rims of the active site to encounter the dual-tail approach” (Eur J Med Chem, 2022)

Key:
Hs-578T = assay: Anticancer activity against human Hs-578T cells assessed as cell growth inhibition at 10 uM incubated for 48 hrs by SRB assay relative to control; assay type: functional; conditions: read-out: GI
HOP-62 = assay: Anticancer activity against human HOP-62 cells assessed as cell growth inhibition at 10 uM incubated for 48 hrs by SRB assay relative to control; assay type: functional; conditions: read-out: GI
BT-549 = assay: Anticancer activity against human BT-549 cells assessed as cell growth inhibition at 10 uM incubated for 48 hrs by SRB assay relative to control; assay type: functional; conditions: read-out: GI
SNB-75 = assay: Anticancer activity against human SNB-75 cells assessed as cell growth inhibition at 10 uM incubated for 48 hrs by SRB assay relative to control; assay type: functional; conditions: read-out: GI
SN12C = assay: Anticancer activity against human SN12C cells assessed as cell growth inhibition at 10 uM incubated for 48 hrs by SRB assay relative to control; assay type: functional; conditions: read-out: GI
Malme-3M = assay: Anticancer activity against human Malme-3M cells assessed as cell growth inhibition at 10 uM incubated for 48 hrs by SRB assay relative to control; assay type: functional; conditions: read-out: GI
MDA-MB-468 = assay: Anticancer activity against human MDA-MB-468 cells assessed as cell growth inhibition at 10 uM incubated for 48 hrs by SRB assay relative to control; assay type: functional; conditions: read-out: GI
SK-MEL-5 = assay: Anticancer activity against human SK-MEL-5 cells assessed as cell growth inhibition at 10 uM incubated for 48 hrs by SRB assay relative to control; assay type: functional; conditions: read-out: GI
CAKI-1 = assay: Anticancer activity against human CAKI-1 cells assessed as cell growth inhibition at 10 uM incubated for 48 hrs by SRB assay relative to control; assay type: functional; conditions: read-out: GI
RXF 393 = assay: Anticancer activity against human RXF 393 cells assessed as cell growth inhibition at 10 uM incubated for 48 hrs by SRB assay relative to control; assay type: functional; conditions: read-out: GI
ACHN = assay: Anticancer activity against human ACHN cells assessed as cell growth inhibition at 10 uM incubated for 48 hrs by SRB assay relative to control; assay type: functional; conditions: read-out: GI
OVCAR-3 = assay: Anticancer activity against human OVCAR-3 cells assessed as cell growth inhibition at 10 uM incubated for 48 hrs by SRB assay relative to control; assay type: functional; conditions: read-out: GI
TK-10 = assay: Anticancer activity against human TK-10 cells assessed as cell growth inhibition at 10 uM incubated for 48 hrs by SRB assay relative to control; assay type: functional; conditions: read-out: GI
KM12 = assay: Anticancer activity against human KM12 cells assessed as cell growth inhibition at 10 uM incubated for 48 hrs by SRB assay relative to control; assay type: functional; conditions: read-out: GI
NCI-H23 = assay: Anticancer activity against human NCI-H23 cells assessed as cell growth inhibition at 10 uM incubated for 48 hrs by SRB assay relative to control; assay type: functional; conditions: read-out: GI
SR = assay: Anticancer activity against human SR cells assessed as cell growth inhibition at 10 uM incubated for 48 hrs by SRB assay relative to control; assay type: functional; conditions: read-out: GI
NCI-H522 = assay: Anticancer activity against human NCI-H522 cells assessed as cell growth inhibition at 10 uM incubated for 48 hrs by SRB assay relative to control; assay type: functional; conditions: read-out: GI
HCC 2998 = assay: Anticancer activity against human HCC 2998 cells assessed as cell growth inhibition at 10 uM incubated for 48 hrs by SRB assay relative to control; assay type: functional; conditions: read-out: GI
HT-29 = assay: Anticancer activity against human HT-29 cells assessed as cell growth inhibition at 10 uM incubated for 48 hrs by SRB assay relative to control; assay type: functional; conditions: read-out: GI
SK-MEL-28 = assay: Anticancer activity against human SK-MEL-28 cells assessed as cell growth inhibition at 10 uM incubated for 48 hrs by SRB assay relative to control; assay type: functional; conditions: read-out: GI
SK-MEL-2 = assay: Anticancer activity against human SK-MEL-2 cells assessed as cell growth inhibition at 10 uM incubated for 48 hrs by SRB assay relative to control; assay type: functional; conditions: read-out: GI
IGROV-1 = assay: Anticancer activity against human IGROV-1 cells assessed as cell growth inhibition at 10 uM incubated for 48 hrs by SRB assay relative to control; assay type: functional; conditions: read-out: GI
MDA-MB-435 = assay: Anticancer activity against human MDA-MB-435 cells assessed as cell growth inhibition at 10 uM incubated for 48 hrs by SRB assay relative to control; assay type: functional; conditions: read-out: GI
UACC-257 = assay: Anticancer activity against human UACC-257 cells assessed as cell growth inhibition at 10 uM incubated for 48 hrs by SRB assay relative to control; assay type: functional; conditions: read-out: GI
HCT-116 = assay: Anticancer activity against human HCT-116 cells assessed as cell growth inhibition at 10 uM incubated for 48 hrs by SRB assay relative to control; assay type: functional; conditions: read-out: GI
OVCAR-4 = assay: Anticancer activity against human OVCAR-4 cells assessed as cell growth inhibition at 10 uM incubated for 48 hrs by SRB assay relative to control; assay type: functional; conditions: read-out: GI
HOP-92 = assay: Anticancer activity against human HOP-92 cells assessed as cell growth inhibition at 10 uM incubated for 48 hrs by SRB assay relative to control; assay type: functional; conditions: read-out: GI
OVCAR-5 = assay: Anticancer activity against human OVCAR-5 cells assessed as cell growth inhibition at 10 uM incubated for 48 hrs by SRB assay relative to control; assay type: functional; conditions: read-out: GI
K562 = assay: Anticancer activity against human K562 cells assessed as cell growth inhibition at 10 uM incubated for 48 hrs by SRB assay relative to control; assay type: functional; conditions: read-out: GI
SK-OV-3 = assay: Anticancer activity against human SK-OV-3 cells assessed as cell growth inhibition at 10 uM incubated for 48 hrs by SRB assay relative to control; assay type: functional; conditions: read-out: GI
HL-60(TB) = assay: Anticancer activity against human HL-60(TB) cells assessed as cell growth inhibition at 10 uM incubated for 48 hrs by SRB assay relative to control; assay type: functional; conditions: read-out: GI
SNB-19 = assay: Anticancer activity against human SNB-19 cells assessed as cell growth inhibition at 10 uM incubated for 48 hrs by SRB assay relative to control; assay type: functional; conditions: read-out: GI
NCI-H460 = assay: Anticancer activity against human NCI-H460 cells assessed as cell growth inhibition at 10 uM incubated for 48 hrs by SRB assay relative to control; assay type: functional; conditions: read-out: GI
MDA-MB-231 = assay: Anticancer activity against human MDA-MB-231 cells assessed as cell growth inhibition at 10 uM incubated for 48 hrs by SRB assay relative to control; assay type: functional; conditions: read-out: GI
Carbonic anhydrase 9 = Carbonic anhydrase 9 (Homo sapiens, UniProt Q16790); assay: Inhibition of recombinant human CA 9 preincubated for 15 mins by phenol red dye based stopped flow CO2 hydration assay
SF-295 = assay: Anticancer activity against human SF-295 cells assessed as cell growth inhibition at 10 uM incubated for 48 hrs by SRB assay relative to control; assay type: functional; conditions: read-out: GI
T47D = assay: Anticancer activity against human T47D cells assessed as cell growth inhibition at 10 uM incubated for 48 hrs by SRB assay relative to control; assay type: functional; conditions: read-out: GI
SF-539 = assay: Anticancer activity against human SF-539 cells assessed as cell growth inhibition at 10 uM incubated for 48 hrs by SRB assay relative to control; assay type: functional; conditions: read-out: GI
MOLT-4 = assay: Anticancer activity against human MOLT-4 cells assessed as cell growth inhibition at 10 uM incubated for 48 hrs by SRB assay relative to control; assay type: functional; conditions: read-out: GI

Structure (SMILES) | inhibition of growth at 10 µM (Hs-578T) [%] | inhibition of growth at 10 µM (HOP-62) [%] | inhibition of growth at 10 µM (BT-549) [%] | inhibition of growth at 10 µM (SNB-75) [%] | inhibition of growth at 10 µM (SN12C) [%] | inhibition of growth at 10 µM (Malme-3M) [%] | inhibition of growth at 10 µM (MDA-MB-468) [%] | inhibition of growth at 10 µM (SK-MEL-5) [%] | inhibition of growth at 10 µM (CAKI-1) [%] | inhibition of growth at 10 µM (RXF 393) [%] | inhibition of growth at 10 µM (ACHN) [%] | inhibition of growth at 10 µM (OVCAR-3) [%] | inhibition of growth at 10 µM (TK-10) [%] | inhibition of growth at 10 µM (KM12) [%] | inhibition of growth at 10 µM (NCI-H23) [%] | inhibition of growth at 10 µM (SR) [%] | inhibition of growth at 10 µM (NCI-H522) [%] | inhibition of growth at 10 µM (HCC 2998) [%] | inhibition of growth at 10 µM (HT-29) [%] | inhibition of growth at 10 µM (SK-MEL-28) [%] | also measured
NS(=O)(=O)c1ccc(Nc2nc(N/N=C/c3ccccc3)nc(Nc3ccccc3)n2)cc1 | 43 | < 10 | < 10 | < 10 | 20 | 22 | 19 | 35 | 27 | 87 | 17 | 29 | < 10 | 26 | 13 | 25 | < 10 | 21 | 37 | 27 | inhibition of growth at 10 µM (SK-MEL-2): 10%; inhibition of growth at 10 µM (IGROV-1): 38%; inhibition of growth at 10 µM (MDA-MB-435): 26%; inhibition of growth at 10 µM (UACC-257): < 10%; inhibition of growth at 10 µM (HCT-116): 27%; inhibition of growth at 10 µM (OVCAR-4): 15%; inhibition of growth at 10 µM (HOP-92): 27%; inhibition of growth at 10 µM (OVCAR-5): < 10%; inhibition of growth at 10 µM (K562): 40%; inhibition of growth at 10 µM (SK-OV-3): < 10%; inhibition of growth at 10 µM (HL-60(TB)): 40%; inhibition of growth at 10 µM (SNB-19): < 10%; inhibition of growth at 10 µM (NCI-H460): 31%; inhibition of growth at 10 µM (MDA-MB-231): 16%; Ki (Carbonic anhydrase 9): 0.0303 µM; inhibition of growth at 10 µM (SF-295): 27%; inhibition of growth at 10 µM (T47D): 37%; inhibition of growth at 10 µM (SF-539): 23%; inhibition of growth at 10 µM (MOLT-4): 58%
NNc1nc(Nc2ccccc2)nc(Nc2ccc(S(N)(=O)=O)cc2)n1 | < 10 | < 10 | < 10 | < 10 | < 10 | < 10 | < 10 | < 10 | < 10 | < 10 | < 10 | < 10 | < 10 | < 10 | < 10 | 32 | < 10 | < 10 | < 10 | < 10 | inhibition of growth at 10 µM (SK-MEL-2): < 10%; inhibition of growth at 10 µM (IGROV-1): < 10%; inhibition of growth at 10 µM (MDA-MB-435): < 10%; inhibition of growth at 10 µM (UACC-257): < 10%; inhibition of growth at 10 µM (HCT-116): < 10%; inhibition of growth at 10 µM (OVCAR-4): < 10%; inhibition of growth at 10 µM (HOP-92): < 10%; inhibition of growth at 10 µM (OVCAR-5): < 10%; inhibition of growth at 10 µM (K562): < 10%; inhibition of growth at 10 µM (SK-OV-3): < 10%; inhibition of growth at 10 µM (HL-60(TB)): < 10%; inhibition of growth at 10 µM (SNB-19): < 10%; inhibition of growth at 10 µM (NCI-H460): < 10%; inhibition of growth at 10 µM (MDA-MB-231): < 10%; inhibition of growth at 10 µM (SF-295): < 10%; inhibition of growth at 10 µM (T47D): < 10%; inhibition of growth at 10 µM (SF-539): < 10%; inhibition of growth at 10 µM (MOLT-4): 81%
